Measured values as given in PMC6733959, “Synthesis and Evaluations of Novel Apocynin Derivatives as Anti-Glioma Agents” (Frontiers in Pharmacology, 2019).

Tested on: NF-κB pathway-related proteins
Test: Western blot of NF-κB pathway-related proteins, U87 cells
Format: cell-based, human
Details: 20 and 50 μM, 48 h
Procedure: Briefly, after treatment with indicated concentrations of test compound (20, 50 μM) for 48 h, the cells were collected, and total cell lysates and nucleus fractions were extracted. Twenty micrograms of cellular protein were subjected to electrophoresis on 12% SDS-polyacrylamide gels and then transferred to polyvinylidene difluoride membranes. The membranes were first incubated with 5% BSA for 2 h at 37°C and then incubated with the first antibodies overnight at 4°C. After HRP-labeled secondary antibodies (1:1,000-dilution) incubation, protein bands were visualized with the enhanced chemiluminescence (ECL) detection solution. The intensity of bands was quantified using ImageJ 1.43 software (National Institutes of Health, Bethesda, MD, USA).

With `COc1cc(C(=O)CSCc2ccccc2Cl)ccc1O` [Compound D31, 2-((2-Chlorobenzyl)thio)-1-(4-Hydroxy-3-Methoxyphenyl)Ethan-1-One] the IκBα expression was “obviously decreased”, the “nucleus p-NF-κB p65 expression” value was “obviously increased” and the p-IKKα/β expression was “obviously increased”.
